Patent publication US9096591B2, “Tetracyclic compounds” (Medivation Technologies, Inc., priority 2007, dated 2015)

Experiments:
Details in all cases: percent inhibition of specific binding
[1] = target: T1, human recombinant adrenergic α2A receptor (Homo sapiens, UniProt P08913); assay: Adrenergic α2A radioligand binding ([3H]MK-912); set-up: Inhibition of ligand binding, Adren. alpha2A: concentration or dose not given beside the values
T1 construct: expressed in transfected cells; host or cells: insect Sf9 cells
T1 sequence (P08913 1-465): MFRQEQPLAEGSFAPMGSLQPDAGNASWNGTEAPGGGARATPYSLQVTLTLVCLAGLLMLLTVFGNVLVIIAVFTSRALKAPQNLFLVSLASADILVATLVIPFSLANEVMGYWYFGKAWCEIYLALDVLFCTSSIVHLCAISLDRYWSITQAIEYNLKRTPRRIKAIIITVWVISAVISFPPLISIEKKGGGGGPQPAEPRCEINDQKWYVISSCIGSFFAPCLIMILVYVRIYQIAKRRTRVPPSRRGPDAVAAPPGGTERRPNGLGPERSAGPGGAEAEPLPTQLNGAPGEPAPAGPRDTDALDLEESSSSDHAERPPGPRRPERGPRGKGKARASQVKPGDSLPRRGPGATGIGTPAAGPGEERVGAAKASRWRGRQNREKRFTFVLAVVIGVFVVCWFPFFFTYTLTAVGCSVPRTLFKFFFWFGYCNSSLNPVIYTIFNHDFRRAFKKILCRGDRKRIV
Procedure, shortened: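 Membranes from Sf9 cells expressing the receptor were incubated with 1 nM [3H]MK-912 for 60 minutes at 25° C in 50 mM Tris-HCl pH 7.4, 12.5 mM MgCl2, 2 mM EDTA. 10 μM WB-4101 defined non-specific binding. Values are percent inhibition of specific bound radioactivity after filtration.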

[2] = target: T2, human recombinant serotonin (5-Hydroxytryptamine) 5-HT2C receptor (Homo sapiens, UniProt P28335); assay: Serotonin 5-HT2C radioligand binding ([3H]Mesulergine); set-up: Inhibition of ligand binding, Ser. 5-HT2C: concentration or dose not given beside the values
T2 construct: expressed in transfected cells; host or cells: CHO-K1 cells
T2 sequence (P28335 33-458): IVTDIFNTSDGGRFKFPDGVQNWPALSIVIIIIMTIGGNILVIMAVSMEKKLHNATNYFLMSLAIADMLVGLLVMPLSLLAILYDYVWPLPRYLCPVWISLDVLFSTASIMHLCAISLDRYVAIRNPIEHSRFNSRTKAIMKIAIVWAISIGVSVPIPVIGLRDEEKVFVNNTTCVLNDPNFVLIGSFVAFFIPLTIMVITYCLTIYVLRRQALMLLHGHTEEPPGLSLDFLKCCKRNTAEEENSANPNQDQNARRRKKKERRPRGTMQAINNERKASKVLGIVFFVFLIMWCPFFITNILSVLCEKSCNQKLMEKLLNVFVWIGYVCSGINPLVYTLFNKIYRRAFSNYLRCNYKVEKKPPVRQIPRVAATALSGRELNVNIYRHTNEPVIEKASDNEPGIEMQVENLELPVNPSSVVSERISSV
Experimental: Compounds of the invention were incubated with 1 nM [^3H]Mesulergine for 60 minutes at 25° C. Non-specific binding was estimated in the presence of 1 μM Mianserin. Receptor proteins were filtered and washed, the filters were then counted to determine [^3H]Mesulergine specifically bound. […] Biochemical assay results are presented as the percent inhibition of specific binding in Table 6.

[3] = target: T3, human recombinant serotonin (5-Hydroxytryptamine) 5-HT6 receptor (Homo sapiens, UniProt P50406); assay: Serotonin 5-HT6 radioligand binding ([3H]LSD); set-up: Inhibition of ligand binding, Ser. 5-HT6: concentration or dose not given beside the values
T3 construct: expressed in transfected cells; host or cells: human HeLa cells
Source text: Receptor proteins were filtered and washed, the filters were then counted to determine [3H]LSD specifically bound. […] Biochemical assay results are presented as the percent inhibition of specific binding in Table 6.

T3 sequence (P50406 whole entry): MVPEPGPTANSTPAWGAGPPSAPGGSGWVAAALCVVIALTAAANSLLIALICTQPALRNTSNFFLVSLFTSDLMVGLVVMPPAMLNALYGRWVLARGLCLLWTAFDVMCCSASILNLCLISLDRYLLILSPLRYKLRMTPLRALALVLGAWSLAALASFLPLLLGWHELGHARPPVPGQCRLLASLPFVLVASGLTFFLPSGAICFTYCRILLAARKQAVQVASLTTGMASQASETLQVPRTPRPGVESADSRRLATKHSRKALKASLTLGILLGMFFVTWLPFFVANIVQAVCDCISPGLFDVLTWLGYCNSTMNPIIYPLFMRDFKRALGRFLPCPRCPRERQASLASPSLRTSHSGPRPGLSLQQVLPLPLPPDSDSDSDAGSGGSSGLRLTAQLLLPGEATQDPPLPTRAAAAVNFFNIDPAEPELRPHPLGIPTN

| Compound | Inhibition of ligand binding, Adren. alpha2A [1] [%] | Inhibition of ligand binding, Ser. 5-HT2C [2] [%] | Inhibition of ligand binding, Ser. 5-HT6 [3] [%] |
| --- | --- | --- | --- |
| Cc1ncc(CCn2c3c(c4cc(Cl)ccc42)CN(C)CC3)cn1 [Compound 361, 8-Chloro-2-methyl-5-[2-(2-methyl-pyrimidin-5-yl)-ethyl]-2,3,4,5-tetrahydro-1H-pyrido[4,3-b]indole] | 30 | 58 | 76 |
| Cc1cncc(CCn2c3c(c4cc(C)ccc42)CN(C)CC3)c1 [Compound 429, 2,3,4,5-tetrahydro-2,8-dimethyl-5-(2-(5-methylpyridin-3-yl)ethyl)-1H-pyrido[4,3-b]indole] | 67 | 84 | 79 |
| Cc1cnc(CCn2c3c(c4cc(Cl)ccc42)CN(C)CC3)cn1 [Compound 363, 8-Chloro-2-methyl-5-[2-(5-methyl-pyrazin-2-yl)-ethyl]-2,3,4,5-tetrahydro-1H-pyrido[4,3-b]indole] | 59 | 66 | 83 |
| Cc1ccc2c(c1)c1c(n2CCc2cncnc2)CCN(C)C1 [Compound 387, 2,8-Dimethyl-5-(2-pyrimidin-5-yl-ethyl)-2,3,4,5-tetrahydro-1H-pyrido[4,3-b]indole] | 12 | 76 | 79 |
| Cc1cccc2c3c(n(CCc4ccc(C(F)(F)F)nc4)c12)CCN(C)C3 [Compound 380, 5-(2-(6-(trifluoromethyl)pyridin-3-yl)ethyl)-2,3,4,5-tetrahydro-2,6-dimethyl-1H-pyrido[4,3-b]indole] | 78 | 70 | 39 |
| Cc1ccc2c(c1)c1c(n2CCc2cnccn2)CCN(C)C1 [Compound 62] | 51 | 88 | 83 |
| CN1CCN(CCn2c3c(c4cc(Cl)ccc42)CN(C)CC3)CC1 [Compound 417, 8-chloro-2,3,4,5-tetrahydro-2-methyl-5-(2-(4-methylpiperazin-1-yl)ethyl)-1H-pyrido[4,3-b]indole] | 28 | 29 | 5 |
| CCc1ccc2c(c1)c1c(n2CCc2cnc(C)cn2)CCN(C)C1 [Compound 364, 8-Ethyl-2-methyl-5-[2-(5-methyl-pyrazin-2-yl)-ethyl]-2,3,4,5-tetrahydro-1H-pyrido[4,3-b]indole] | 65 | 81 | 70 |
| Cc1ccc2c(c1)c1c(n2CC(=O)N2CCN(C)CC2)CCN(C)C1 [Compound 459, 2-(1,2,3,4-tetrahydro-2,8-dimethylpyrido[4,3-b]indol-5-yl)-1-(4-methylpiperazin-1-yl)ethanone] | −9 | 3 | −10 |
| Cc1ccc2c(n1)c1c(n2CCc2ccc(C(F)(F)F)nc2)CCN(C)C1 [Compound 353, 9-aza-2,8-dimethyl-5-(2-(6-(trifluoromethyl)pyridin-3-yl)ethyl)-2,3,4,5-tetrahydro-1H-pyrido[4,3-b]indole] | 8 | −15 | 0 |
| Cc1cnc(CCn2c3c(c4cc(C(C)C)ccc42)CN(C)CC3)cn1 [Compound 369, 8-Isopropyl-2-methyl-5-[2-(5-methyl-pyrazin-2-yl)-ethyl]-2,3,4,5-tetrahydro-1H-pyrido[4,3-b]indole] | 25 | 57 | 23 |
| CN1CCc2c(c3cc(Cl)cc(F)c3n2CCc2ccc(C(F)(F)F)nc2)C1 [Compound 338, 8-chloro-6-fluoro-5-(2-(6-(trifluoromethyl)pyridin-3-yl)ethyl)-2,3,4,5-tetrahydro-2-methyl-1H-pyrido[4,3-b]indole] | 99 | 68 | 66 |
| Cc1ccc2c(c1)c1c(n2CC(=O)N2CCCC(C)C2)CCN(C)C1 (stereo not drawn) [Compound 401, 2-(1,2,3,4-tetrahydro-2,8-dimethylpyrido[4,3-b]indol-5-yl)-1-(3-methylpiperidin-1-yl)ethanone] | 3 | 39 | 1 |
| Cc1ccc(CCn2c3c(c4cc(C(C)C)ccc42)CN(C)CC3)cn1 [Compound 392, 8-Isopropyl-2-methyl-5-[2-(6-methyl-pyridin-3-yl)-ethyl]-2,3,4,5-tetrahydro-1H-pyrido[4,3-b]indole] | 89 | 82 | 61 |
| Cc1ccc2c(c1)c1c(n2CC(=O)N2Cc3ccccc3C2)CCN(C)C1 [Compound 397, 2-(1,2,3,4-tetrahydro-2,8-dimethylpyrido[4,3-b]indol-5-yl)-1-(isoindolin-2-yl)ethanone] | 16 | 44 | −9 |
| Cc1ccc(CCn2c3c(c4cc(CO)ccc42)CN(C)CC3)cn1 [Compound 263] | 34 | 31 | 31 |
| CCc1ccc(CCn2c3c(c4cc(C)ccc42)CN(C)CC3)cn1 [Compound 359, 5-[2-(6-Ethyl-pyridin-3-yl)-ethyl]-2,8-dimethyl-2,3,4,5-tetrahydro-1H-pyrido[4,3-b]indole] | 77 | 91 | 95 |
| Cc1ncc(CCn2c3c(c4cc(C(C)C)ccc42)CN(C)CC3)cn1 [Compound 370, 8-Isopropyl-2-methyl-5-[2-(2-methyl-pyrimidin-5-yl)-ethyl]-2,3,4,5-tetrahydro-1H-pyrido[4,3-b]indole] | 35 | 40 | 64 |
| CN1CCc2c(c3cc(Cl)c(F)cc3n2CCc2ccc(C(F)(F)F)nc2)C1 [Compound 343] | 90 | 69 | 57 |
| CN1CCc2c(c3cc(Cl)ccc3n2CCN2CCCCC2)C1 [Compound 189] | 76 | 85 | 66 |
| CCc1ccc2c(c1)c1c(n2CCc2ccc(C(F)(F)F)nc2)CCN(C)C1 [Compound 358, 8-Ethyl-2-methyl-5-[2-(6-trifluoromethyl-pyridin-3-yl)-ethyl]-2,3,4,5-tetrahydro-1H-pyrido[4,3-b]indole] | 96 | 78 | 65 |
